13 molecules from US20250304916A1, “METHODS AND COMPOSITIONS FOR GENERATING VASCULAR LEPTOMENINGEAL CELLS” (Trailhead Biosystems Inc., priority 2024, published 2025) can be followed below.

Values joined by “and” are separate entries in the source; they are usually repeats but may differ in a detail not shown here. Equal values may be shown once.

What all share (type): cell-based, human
The test system of one series is PDGFRA expression. Put plainly: HD-DoE 8-factor modeling experiment (stage 3), model optimized for maximum expression of PDGFRA. Conditions: FIG. 2; for factor contribution, negative impact on PDGFRA expression: model optimized for maximum expression of PDGFRA; for factor contribution, positive impact on PDGFRA expression: model optimized for maximum expression of PDGFRA at 853. The protocol: (§1) To engineer the recipe of stage 3 of differentiation, cells were first cultured in stage 1 and stage 2 media (described in detail in US Publications 2022/0315891 and 2024/0043798). Then, 48 or 96 different combinations of effectors generated using HD-DoE compression through D-optimality were robotically prepared. The effector combinations were prepared in a basal media and were subsequently added to the cells, which were then allowed to differentiate. 3 days later RNA extraction was performed, and gene expression was obtained using quantitative PCR analysis. The data was normalized and modeled using partial least squares regression analysis to the effector design, resulting in the generation of gene-specific models, which after model tuning for maximal predictive power, provided explanation of the effectors ability to control the expression of individual genes, combinatorically, and individually. Solutions within the tested space were then further explored to address desirability.
(§2) In one 8-factor modeling experiment, the individual and combinatorial effect of CHIR99021 (a WNT pathway agonist), AGN193109 (an RA pathway antagonist), FGF-2 (FGFR pathway agonist), Purmorphamine (a SHH pathway agonist), TTNPB (an RA pathway agonist), IGF-1 (an IGF-1 pathway agonist), MHY1485 (a mTOR pathway agonist), and Sc79 (an Akt pathway agonist), on further differentiation of cells were tested. […] Sc79 had the highest negative impact on its expression with factor contribution of 30.
The highest positive contribution was from Purmorphamine with factor contribution of 21 and IGF-1 with factor contribution of 11. MHY1485 and AGN193109 had the highest negative impact with factor contribution of 21 and 23, respectively (FIG. 2). […] When the model was optimized, expression levels were observed of NKX2-2 at 1200, OLIG1 at 550, OLIG2 at 1000, PDGFRA at 500, SOX8 at 70, and SOX10 at 35 (FIG. 4).

The test system of the next series is SOX10 expression. Briefly: HD-DoE 8-factor modeling experiment (stage 3), model optimized for maximum expression of SOX10, qPCR gene expression. Conditions: for effect on expression of SOX10 (dynamic profile): model optimized for maximal SOX10 expression, FIG. 4; for factor contribution, positive regulatory effect on SOX10 expression: model optimized for maximum expression of SOX10 at 40. The protocol: as §1, §2
Background: In qPCR the cycle at which signal appears reflects the starting amount.

In another series the test system is SOX8 expression. Put plainly: HD-DoE 8-factor modeling experiment (stage 3), model optimized for maximal expression of SOX8. As to conditions: FIG. 3. As for the experimental part: as §1
In one 8-factor modeling experiment, the individual and combinatorial effect of CHIR99021 (a WNT pathway agonist), AGN193109 (an RA pathway antagonist), FGF-2 (FGFR pathway agonist), Purmorphamine (a SHH pathway agonist), TTNPB (an RA pathway agonist), IGF-1 (an IGF-1 pathway agonist), MHY1485 (a mTOR pathway agonist), and Sc79 (an Akt pathway agonist), on further differentiation of cells were tested. […]

Series [1] concerns OLIG1 and NKX2-2 expression. Briefly: HD-DoE 12-factor modeling experiment (stage 3), models optimized for maximal expression of OLIG1 and NKX2-2 simultaneously. Conditions: FIG. 5; for factor contribution, positive effect on upregulation of OLIG1 and NKX2-2: models optimized for OLIG1 (192) and NKX2-2 (486) simultaneously. The protocol: as §1
Another 12-factor modeling experiment was performed to study the effect of additional factors on expression level of target genes at stage 3. In this experiment, Activin A, Linoleic acid (a polyunsaturated fatty acid), DBZ (GSI-XX) (a NOTCH pathway inhibitor), ZM336372 (a c-Raf inhibitor), AZD3147 (a mTOR pathway inhibitor), PDGF-AA (a PDGF pathway agonist) and MK2206 (an Akt pathway inhibitor), along with AGN193109, TTNPB, FGF2, IGF-1, and MHY1485, were tested. According to literature, proteins such as FGF-2, IGF-1, and PDGF-AA play an important role in oligodendrocyte differentiation (Goldman and Kuypers (2015) Development 142:3983-95). Models were optimized for maximal expression of OLIG1 with expression level of 192 and NKX2-2 with expression level of 486 simultaneously. […] MK2206 with factor contribution of 19 had the highest negative impact on expression of these genes. […] To confirm the impact of identified factors on a bigger scale, the expression profile of a larger group of genes defining late oligodendrocyte progenitor population (Perlman et al. (2020) Glia 68:1291-1303; Goldman and Kuypers (2015) Development 142:3983-95; van Tilborg et al. (2018) Glia 66:221-238) was investigated. At maximal expression of OLIG1 and NKX2-2, other desired genes such as CNP, IGFBP2, MYC, and MYT-1 were highly expressed, while neuronal genes, NEUROD1, NEUROG1, and NEUROG2 had expression levels less than 30.

The next series concerns MBP expression. Briefly: HD-DoE 8-factor model (stage 4), optimized for maximum expression of MBP. Conditions: model optimized for MBP at 274; FIG. 6.

As to `Cc1ccc(C2=CCC(C)(C)c3ccc(C#Cc4ccc(C(=O)O)cc4)cc32)cc1` [AGN193109], in the series on PDGFRA expression, the “factor contribution, negative impact on PDGFRA expression” value is reported as 23.

In the case of `Cc1c[nH]c(-c2cnc(NCCNc3ccc(C#N)cn3)nc2-c2ccc(Cl)cc2Cl)n1` [CHIR99021], in the series on SOX10 expression, the “effect on expression of SOX10 (dynamic profile)” value (“effect on expression of SOX10” below) is reported as “positive effect”. In addition, the “factor contribution, positive regulatory effect on SOX10 expression” value in the series with SOX10 expression (FIG. 1) is on record as 8. Also, the “factor contribution, positive impact on PDGFRA expression” value in the series on PDGFRA expression is given as 8.

In the case of `O=[N+]([O-])c1ccc(Nc2nc(N3CCOCC3)nc(N3CCOCC3)n2)cc1` [MHY1485], the “factor contribution, positive effect on SOX8 expression” value in the series with SOX8 expression was 13 and 13.2. In addition, the “factor contribution, negative impact on PDGFRA expression” value with PDGFRA expression stood at 21.

`NC1(c2ccc(-c3nc4ccn5c(=O)[nH]nc5c4cc3-c3ccccc3)cc2)CCC1` [MK2206]: the “factor contribution, negative impact on expression of OLIG1 and NKX2-2” value in series [1] (models optimized for OLIG1 and NKX2-2 simultaneously) is listed as 19.

With `c1ccc2c(Oc3nc(Nc4ccc(N5CCOCC5)cc4)c4ncn(C5CCCCC5)c4n3)cccc2c1` [Purmorphamine], the “factor contribution, positive impact on PDGFRA expression” value with PDGFRA expression was 21 and 20.6.

For `CCOC(=O)C1=C(N)Oc2ccc(Cl)cc2C1C(C#N)C(=O)OCC` (centres unmarked) [Sc79], in the series on SOX10 expression (model optimized for maximum expression of SOX10, FIG. 1), the “factor contribution, negative impact on SOX10 expression” value is 30.

In the case of `N[C@@H](Cc1cc(I)c(Oc2ccc(O)c(I)c2)c(I)c1)C(=O)O` [T3], the “factor contribution, positive impact on MBP expression” value in the series with MBP expression was determined as 18.1.

In the case of `C/C(=C\c1ccc(C(=O)O)cc1)c1ccc2c(c1)C(C)(C)CCC2(C)C` [TTNPB], the “effect on expression of SOX10” value in the series on SOX10 expression is on record as “positive effect”. Moreover, in the series on SOX10 expression (FIG. 1), the “factor contribution, positive regulatory effect on SOX10 expression” value worked out at 18. Moreover, the “factor contribution, positive impact on PDGFRA expression” value with PDGFRA expression was 0.6.

Regarding `CCCCC/C=C\C/C=C\CCCCCCCC(=O)O` [linoleic acid], the “factor contribution, positive effect on upregulation of OLIG1 and NKX2-2” value in series [1] came to 12.

On to Dibenzazepine [DBZ], for which the entries for the “factor contribution, positive effect on upregulation of OLIG1 and NKX2-2” value in series [1] and in series [1] (listed as GSI-XX (DBZ)) were 13 and 13.2, respectively. Further, the “factor contribution, positive impact on MBP expression” value in the series on MBP expression turned out to be 18.1.

For the molecule “FGF-2: FGFR pathway agonist; naturally occurring ligand”, in the series with SOX10 expression, the “effect on expression of SOX10” value is “positive effect”. The “factor contribution, positive regulatory effect on SOX10 expression” value in the series with SOX10 expression (FIG. 1) is given as 15.

Consider “IGF-1: insulin-like growth factor 1; an IGF-1 pathway agonist”, for which, in the series with SOX10 expression (dynamic profile analysis, decreased from 40 without IGF-1), the “expression level of SOX10 after addition of IGF-1 to the suggested recipe” value was determined as 35. Further, the “factor contribution, positive effect on SOX8 expression” value in the series on SOX8 expression was 16 and 15.6. The “factor contribution, positive impact on PDGFRA expression” value in the series with PDGFRA expression is 11 and 11.22.

Take “PDGF-AA: a PDGF pathway agonist; ligand of a PDGFR”: the “factor contribution, positive effect on upregulation of OLIG1 and NKX2-2” value in series [1] stood at 21.
